Experimental data reported in patent publication US4710580A, “2-[1,3,2-dioxaphospholan-2-yloxy]ethyl compounds” (American Home Products Corporation, priority 1986, dated 1987).

Columns and labels:
[1] = test system: lipoxygenase and/or cyclooxygenase pathways of arachidonic acid; assay: arachidonic acid (AA)-induced murine ear edema test; type: in vivo, Swiss Webster female mice; settings: 1 mg/ear, drug 30 minutes prior to AA (2 mg/ear), ear thickness measured after 1 hour
Source text: (§1) The ability of the compounds of the invention to inhibit the lipoxygenase and/or cyclooxygenase pathways of arachidonic acid is examined in the in vivo arachidonic acid (AA)-/12-O-tetradecanoylphorbol acetate (TPA)-induced murine ear edema test.
(§2) According to this test, Swiss Webster female mice (Buckshire), approximately 8 weeks old, are placed into plastic boxes in groups of six. Eight groups of mice receive AA topically on the right ear, and another 8 groups receive TPA topically on the right ear. AA and TPA are dissolved in acetone at concentrations of 100 mg/ml ad 100 μg/ml respectively. The phlogistics are applied to the right ear by the means of an automatic pipet. Volumes of 10 μl are applied to the inner and outer surfaces of the ear. Each mouse receives either 2 mg/ear AA or […] TPA. The left ear (control) receives acetone delivered in the same manner. […]
(§3) Measurements are taken with Oditest calipers, 0-10 mm with 0.01 graduations. The right and left ears are measured after 1 hour AA-induced inflammation and 4 hours after TPA-induced inflammation.
(§4) The difference between right and left ear thickness is calculated and the significance is determined by a one way analysis of variance with Dunnett's comparisons to control (P=0.05). Drug effects are expressed as a percent change from control values: [formula]

human platelet PLA2 = biological target: T1, human platelet PLA2 (Homo sapiens, UniProt P14555); assay: in vitro inhibition of human platelet PLA2 (hydrolysis of [1-14C] oleic acid-labelled E. coli membrane phospholipids); type: biochemical; settings: pH 7.4, 30 minutes incubation
T1 construct: The PLA2 enriched supernatant fluid is removed and the amount of protein is determined by the Lowry method; from tissue; host or cells: human platelets (expired, blood bank), acid extract, 10,000 g supernatant
T1 sequence (P14555 21-144): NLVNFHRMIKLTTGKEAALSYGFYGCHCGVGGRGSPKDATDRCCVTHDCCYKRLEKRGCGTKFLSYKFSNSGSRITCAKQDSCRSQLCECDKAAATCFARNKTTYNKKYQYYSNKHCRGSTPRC
Protocol: The ability of the compounds to inhibit the activity of PLA2 enzyme is measured in the following in vitro assay.
The assay is carried out as follows:
E. coli, cultured to exponential growth, are sedimented for 15 minutes at 10,000 g and resuspended in sterile isotonic saline (1-3 ml). 10-25 μCi [1-^14 C] oleic acid (or arachidonic acid) is added to a sterile flask, evaporated by N2 and resolubilized with 0.3 ml 20% fatty acid-free BSA. 75-100 ml of nutrient broth and 1 ml E. coli are then added to each flask and incubated for 2-3 hours at 37° C. [1-^14 C] oleic acid labelled E. coli are then sedimented, suspended in saline and added to fresh nutrient broth and incubated for 1.5 hours at 37° C. to complete [1-^14 C] oleic acid incorporation into the phospholipids. After overnight refrigeration of cultures, E. coli are again sedimented, suspended in saline and autoclaved for 15 minutes at 120° C. E. coli cultures are washed twice with saline (first wash contains 1% BSA) and resuspended in saline. […] Cell number is determined by measuring the optical density at 550 nm ([…]=1 O.D.). The amount of radioactivity associated with cells is determined by counting a defined volume of cell suspension. […]
Expired human platelets from the blood bank are centrifuged for 15 minutes at 200 g to obtain a platelet rich plasma fraction and to remove the red blood cells. […] The PLA2 enriched supernatant fluid is removed and the amount of protein is determined by the Lowry method. […]
The assay measures the hydrolysis of E. coli membrane phospholipids and the release of free [1-^14 C] oleic acid from the C-2 position of phospholipids by human platelet PLA2. […] Free fatty acid ([1-^14 C] oleic acid labeled phospholipids are visualized with exposure to iodine vapors. Radioactive areas that co-chromatographed with authentic oleic acid and phospholipid standards are cut out and placed in a scintillation vial. One ml CH3 OH and 10 ml Hydrofluor are added to each cut strip and radioactivity is determined by liquid scintillation counting.
The percent hydrolysis is calculated by the following equation: [formula]

[2] = test system: lipoxygenase and/or cyclooxygenase pathways of arachidonic acid; assay: 12-O-tetradecanoylphorbol acetate (TPA)-induced murine ear edema test; type: in vivo, Swiss Webster female mice; settings: 1 mg/ear, drug 30 minutes after TPA (4 μg/ear), ear thickness measured after 4 hours
Source text: as §1, §2, §3, §4

For `CCCCCCCCCCCCNC(=O)OCCOP1(=O)OCCO1` [Example 2, Dodecylcarbamic acid 2-(1,3,2-dioxaphospholan-2-yloxy)ethyl ester P-oxide], which “% Change from Control, TOPICAL, AA” value [1] is on record?
The value was -16%.

What about the inhibition at 100 µM (human platelet PLA2) of the same molecule?
Its inhibition at 100 µM is 92%.

What about the “% Change from Control, TOPICAL, TPA” value [2] of the same molecule?
Its value is -38%.

With `CCCCCCCCCCCCNC(=O)NCCOP1(=O)OCCO1` [Example 1, N-[2-(1,3,2-Dioxaphospholan-2-yloxy)ethyl]-N'-dodecylurea P-oxide] as the molecule, how does the inhibition at 100 µM (human platelet PLA2) read?
Its inhibition at 100 µM is 32%.

For `CCCCCCCCCCCCCCCCS(=O)(=O)NCCOP1(=O)OCCO1` [Example 3, N-[2-(1,3,2-dioxaphospholan-2-yloxy)ethyl]-1-hexadecanesulfonamide P-oxide], which inhibition at 100 µM (human platelet PLA2) is on record?
The inhibition at 100 µM was 28%.
